{"source": "patent US20250011878A1", "about": "“METHOD TO DETECT RNA BIOMARKERS” (ITALFARMACO SPA, priority 2021, published 2025)", "key": {"[1]": {"conditions": "dog, in vivo, 1000 mg/kg"}, "[2]": {"target": "T1, HDAC6 (Mus musculus, UniProt Q9Z2V5)", "T1 construct": "Spleens were collected and total splenocytes suspension was prepared; from tissue; host or cells: spleen (splenocytes) of BALB/c mice bearing CT26 tumors", "T1 sequence (Q9Z2V5 1-1149)": "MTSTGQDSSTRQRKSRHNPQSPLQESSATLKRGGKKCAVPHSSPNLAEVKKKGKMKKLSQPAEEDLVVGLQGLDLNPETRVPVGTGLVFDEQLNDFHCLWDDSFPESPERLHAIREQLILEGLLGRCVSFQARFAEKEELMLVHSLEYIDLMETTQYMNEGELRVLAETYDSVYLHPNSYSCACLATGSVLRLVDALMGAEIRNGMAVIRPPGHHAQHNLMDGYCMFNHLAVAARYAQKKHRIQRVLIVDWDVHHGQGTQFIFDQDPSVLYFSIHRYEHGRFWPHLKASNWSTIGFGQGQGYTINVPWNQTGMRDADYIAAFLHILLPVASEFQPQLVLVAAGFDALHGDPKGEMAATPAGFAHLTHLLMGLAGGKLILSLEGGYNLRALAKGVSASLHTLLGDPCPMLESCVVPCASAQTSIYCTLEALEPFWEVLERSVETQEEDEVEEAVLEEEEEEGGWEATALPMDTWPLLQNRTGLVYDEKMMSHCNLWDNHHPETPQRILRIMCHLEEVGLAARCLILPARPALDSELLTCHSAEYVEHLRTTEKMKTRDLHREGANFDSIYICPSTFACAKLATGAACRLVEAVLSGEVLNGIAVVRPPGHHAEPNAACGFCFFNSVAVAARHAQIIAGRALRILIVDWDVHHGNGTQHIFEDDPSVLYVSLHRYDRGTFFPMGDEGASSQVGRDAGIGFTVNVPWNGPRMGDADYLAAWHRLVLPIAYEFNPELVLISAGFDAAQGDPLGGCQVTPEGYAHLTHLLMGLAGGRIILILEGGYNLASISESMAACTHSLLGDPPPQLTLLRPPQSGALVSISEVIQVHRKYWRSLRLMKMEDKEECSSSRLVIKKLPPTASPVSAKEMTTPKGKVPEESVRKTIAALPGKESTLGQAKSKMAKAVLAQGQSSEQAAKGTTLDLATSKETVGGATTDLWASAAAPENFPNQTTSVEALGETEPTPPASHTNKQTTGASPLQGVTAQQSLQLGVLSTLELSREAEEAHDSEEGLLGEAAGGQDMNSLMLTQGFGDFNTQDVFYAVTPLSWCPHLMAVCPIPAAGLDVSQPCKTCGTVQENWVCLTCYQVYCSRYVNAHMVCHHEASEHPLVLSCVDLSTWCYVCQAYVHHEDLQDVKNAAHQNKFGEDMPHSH", "assay": "Target engagement: tubulin acetylation in spleen of CT26 tumor bearing mice (western blot)", "format": "in vivo, BALB/c mice", "conditions": "50 mpk os, 8 administrations (Table 9)", "experimental": "Adult BALB/c mice were injected s.c. with 1×10^6 CT26 tumor cells (diluted to 100 μl with phosphate buffered saline) and treated with anti-PD1 or ITF3756 when the tumor volume reached 75-100 mm^3, to explore the modulation of genes in the tumor microenvironment by RNAseq. Since ITF3756 acts on the PD-1/PD-L1 axis, this approach allows the identification of genes specific and common to both treatments. The overall schedule is described in Table 9.\nWhole cell extracts were obtained by lysing mice spleens with Triton Buffer (50Mm Tris-HCl ph 7.5, 250 mM NaCl, 50 mM NaF, 1 mM EDTA pH 8, 0.1% Triton), supplemented with protease and phosphatase inhibitors (Roche, Germany). Proteins were separated by SDS-PAGE, transferred onto PVDF membranes and blocked with PBS-T (Phosphate-buffared saline and 0.1% Tween-20 containing 5% non-fat dry milk for one hour at room temperature (RT). The incubation with primary antibodies was performed for two hours at RT, followed by incubation with the appropriate horseradish peroxidase-conjugated secondary antibody. Detection was performed with ECL Western Blot Reagent (Amerscham). The antibodies used were: mouse anti acetylated tubulin (Sigma, T6793), mouse anti tubulin (Sigma, T6074), goat anti-mouse IgG (H+L)-HRP conjugate (Bio-Rad, 1706516).\nDensitometry analysis was performed using ImageJ software. […]\nTo ascertain HDAC6 inhibition by ITF3756, the spleen of the animals were collected at all sacrifice time points (1 hour, 4 hours, 18 hours and 24 hours). Tubulin acetylation and total tubulin were detected by western blotting.\nTumor bearing animals were sacrificed at various time points after the last administration. Spleens were collected and total splenocytes suspension was prepared. Pelleted cells were lysed to obtain a total protein extract […] by electrophoresis. Tubulin and acetyl-tubulin were detected after western blotting using specific antibodies."}}}
{"smiles": "O=C(NO)c1ccc(Cn2nnnc2-c2cccs2)cc1", "note": "[ITF3756, N-hydroxy-4-((5-(thiophen-2-yl)-1 H-tetrazol-1-yl)methyl)benzamide]", "values": [{"measurement": "tolerability", "setting": "[1]", "result": "well tolerated"}, {"measurement": "tubulin acetylation in spleen", "setting": "[2]; 1 hour after the last treatment", "result": "strong increase"}, {"measurement": "tubulin acetylation in spleen", "setting": "[2]; 4 hours after the last treatment", "result": "maintained until 4 hours"}, {"measurement": "tubulin acetylation in spleen", "setting": "[2]; 18 hours after the last treatment", "result": "still high and consistent"}, {"measurement": "tubulin acetylation in spleen", "setting": "[2]; 24 hours after the last treatment", "result": "still detectable, but not in all the animals analysed"}]}
